Bounds are passed on as bounds.

Melting point data for 90 molecules are collected here from a melting point compilation (Tetko et al.; mined from patent text by program, amines drawn as free bases though some values may be those of a salt).

In the case of `O=C(O)[C@@H]1CCCN1C(=O)C(CS)CS`, the melting point was 138 to 140 °C. The molecule `C=CCNc1nc(NCC=C)c2scc(CC)c2n1` yielded a melting point of 55 °C. For `O=c1[nH]c2cccnc2n1-c1ccccn1`, the melting point lay in the range of 235 to 238 °C.

`CCn1c(COC(=O)NC(=O)c2cc(Cl)cc(Cl)c2)nc(C(C)C)c1Sc1cc(Cl)cc(Cl)c1` had a melting point of 124 to 125 °C. To `COc1ccccc1NC(C(N)=O)c1c(Cl)cccc1Cl` (stereo not given) belongs 192 °C; to `Cc1ccnc2c1C(=O)CC(c1ccco1)C2` (stereo not given), 70 to 71 °C.

In turn, `Cc1cc(Cl)c(C(=O)c2cc(C)c(C)cc2Cl)cc1C` showed a melting point of 148 to 149 °C. To `CCCCC(=N)NC(=O)Nc1ccccc1Cl` belongs 132 to 134 °C; to `CCc1c(Oc2ccc([N+](=O)[O-])cc2C(F)(F)F)nn(C(=O)NC)c1C`, 96 to 97 °C. In turn, `NS(=O)(=O)c1cc2c(s1)SCCCC2=O` showed a melting point of 185 to 186 °C.

With `O=C(Cc1ccccc1)c1c(O)c2cccnc2n(-c2ccccc2)c1=O`, the melting point fell in the range of 169 to 170 °C. `COc1ccc(C(=O)C=Cc2cc(Br)ccc2O)cc1` came in with a melting point of 177 to 179 °C. The result for `CN(c1ccc(C2CCCCC2)cc1)c1nc(=O)c2cccnc2s1` reads 192 to 195 °C; that for `N#Cc1cc(C(F)(F)F)nn1-c1ccc(NC(=O)c2ccncc2Cl)cc1`, 221 to 222 °C; that for `CN=CN(C)c1ccccc1C#N`, 60 to 63 °C. For the molecule `COc1ccc(C(=O)Oc2ccc(O)cc2)cc1C12CC3CC(CC(C3)C1)C2`, the melting point lay in the range of 236 to 237 °C. Take `N#Cc1ccccc1OC(=O)CCC1CCN(C(=N)N)CC1`: the melting point was in the range of 160 to 162 °C. The result for `CC(=O)c1ccc(-c2cc(-c3c(-c4ccccn4)nc4ccccn34)ccn2)cc1` reads 214 °C. To `CCN1CC(=O)N(c2cc(Oc3ncccc3C(F)(F)F)c(Cl)cc2F)C1=O` belongs 162 to 163 °C; to `N#CC(c1ccccc1)(c1ccccc1)c1ccc([N+](=O)[O-])cn1`, 94 to 99 °C; to `CCOC(=O)C1C(=O)NC(=O)C12C(=O)N(Cc1ccc(Cl)c(Cl)c1)c1ccccc12` (stereo not given), 60 to 85 °C. For the molecule `CN1CCN(C(=O)C2CCC(Nc3ncc4ncnc(Nc5ccc(F)c(Cl)c5)c4n3)CC2)CC1` (stereo not given), the melting point was in the range of 194 to 197 °C.

For `CC12CC(=NO)C(C)(C)C1C(O)C2` (stereo not given), the melting point is 130 to 133 °C. Regarding `CCCn1c(=O)c2[nH]c(/C=C/c3ccccc3F)nc2n(CCC)c1=O`, the melting point worked out at 259 °C. In turn, `Clc1ccc2c(c1)C(c1ccccc1)=NCc1nnc(CNCC3CC3)n1-2` displayed a melting point of 154 to 157 °C. `Cc1c(Cl)ncc2ncc(-c3ccccc3)cc12` displayed a melting point of 136 °C. The result for `CC1(N2Cc3cc(CNC(=O)Cc4ccc(Cl)cc4)ccc3C2=O)CCC(=O)NC1=O` (stereo not given) reads 230 to 232 °C; that for `O=C(CCCOc1cc(-c2ccccc2)ccc1O)NO`, 148 to 152 °C. Regarding `CCCc1cc(N2CCC(NCC(O)c3ccnc4ccccc34)CC2)nc2sc(C(N)=O)c(N)c12` (stereo not given), the melting point is 170 to 172 °C. To `COC(=O)CC1Oc2ccccc2Oc2ccccc21` (stereo not given) belongs 72 to 74 °C; to `CS(=O)(=O)c1ccc(-n2nc(C(F)(F)F)cc2-c2ccc(Br)cc2)cc1F`, 64 to 65 °C. On to `CCCCS(=O)(=O)N[C@@H](Cc1ccc(NC(=O)NC(=O)c2ccc(C#N)cc2)cc1)C(=O)OC(C)(C)C`, for which the melting point is 171 to 173 °C. Molecule `CCC(=CC(CNC(=O)c1cccnc1SC)=NO)C(C)[N+](=O)[O-]` (stereo not given) registered a melting point of 161 to 163 °C. Molecule `C=C1C(O)C2(O)OCC34C(CC5C(C)=CC(=O)C(O)C5(C)C23)OC(=O)CC14` (stereo not given) came in with a melting point of 235 to 237 °C. The molecule `COC(=O)/C=C/n1cnc2ccc(Cl)cc2c1=O` registered a melting point of 171 to 172 °C.

Take `O=C(O)CCNC(=O)C(CS)Cc1ccccc1` (stereo not given): the melting point was in the range of 76 to 82 °C.

`CCOC(=O)c1ccc(OCCCCCCCCc2cc(C)no2)cc1`: the melting point is 49 °C. As for `CC1(C(=O)c2c[nH]c3ncc(-c4ccc(N5CCOCC5)cc4)nc23)CCCCC1`, the melting point was in the range of 233 to 235 °C. The result for `COC(=O)CNC(=O)c1ccc(Cl)c(Cl)c1` reads 133 to 134 °C.

`Brc1ccc2c(c1)[nH]c1cc(Br)ccc12` gave a melting point of 224 to 225 °C. To `COc1ccc(CN(C)CCCOc2ccc(NC(=O)c3cccc4c(=O)c5cccc(OC)c5[nH]c34)cc2)cc1OC` belongs 180 °C; to `CC(C)COC(=O)C(=O)c1csc(N)n1`, 105 to 108 °C.

Molecule `CCCCOc1c2c(nc3c1cnn3CC)CCc1ccccc1C2=O` had a melting point of 113 to 115 °C. To `CC(C(=O)O)c1ccc(-c2ccc(Br)cc2Br)cc1` (stereo not given) belongs 114 to 116 °C; to `COc1ccc2c(c1)COc1c-2ccc2c(OC)cccc12`, 166 to 167 °C; to `COc1cc2c(cc1-c1ccoc1)C(=CNc1ccc(N3CCN(C)CC3)cc1)C(=O)NC2=O`, 198 to 220 °C.

`O=C1Nc2ccc(F)c(Cl)c2C(=O)N2CCC[C@@H]12` displayed a melting point of 217 to 219 °C. The result for `O=C(O)c1c(Cc2ccccc2)nc2c(C(F)(F)F)cccc2c1O` reads 252 °C. The molecule `O=C(CON1C(=O)c2ccccc2C1=O)OC(c1ccccc1)c1ccccc1` had a melting point of 173 to 175 °C. On to `CCOC(=O)N1CCN(C2=Nc3ccc(Br)c4cccc2c34)CC1`, for which the melting point lay in the range of 170 to 174 °C.

The molecule `O=C(CN1C(=O)c2ccccc2C1=O)c1cc(O)c(O)c([N+](=O)[O-])c1` gave a melting point of 214 to 216 °C.

In the case of `C1=Cc2ccccc2SS1`, the melting point lay in the range of 82 to 83 °C. Take `OC(CNCc1ccccc1)COc1ccc(CCOCC2CC2)cc1` (stereo not given): the melting point lay within 75 to 76 °C. The result for `COc1ccccc1N1CCN(CCNC(=O)c2nsc3ccccc23)CC1` reads 107 to 110 °C.

`O=C(O)c1ccccc1NCCNc1ccccc1C(=O)O` showed a melting point of 248 °C. The result for `N=C(Nc1ccccc1I)Nc1cccc2ccccc12` reads 154 to 155 °C; that for `COc1cccc(NC(=O)NCc2ccc3c(c2)C(=O)N(C2CCC(=O)NC2=O)C3=O)c1` (stereo not given), 323 to 325 °C. The result for `CCN1CCN([C@@H]2c3cc(C#N)ccc3OC(C)(C)[C@H]2O)C1=NC#N` (relative stereo) reads 231 to 233 °C; that for `COc1ccc(S(=O)(=O)N(CCCN(C)C)c2ccc(Cl)cc2Cc2c(F)cccc2F)cc1OC`, 134 °C. The molecule `O=C1CCCC(n2nc(-c3c(-c4ccccc4)nn4ccccc34)ccc2=O)C1` (stereo not given) gave a melting point of 126 to 127 °C. To `CCOC(=O)Cc1nc2ccccc2n1C` belongs 66 to 67 °C; to `CNC(=NC#N)NCCSCc1noc(NC(=N)N)n1`, 185 to 188 °C. The result for `N#Cc1ccc2c(c1)C(=O)c1ccccc1CN2` reads 235 to 236 °C; that for `CC12CCC3c4ccc(C(=O)O)cc4CCC3C1CCC2C(=O)CCc1ccc(O)cc1` (stereo not given), 197 °C. The result for `Cc1nc(C)c(C(C)(O)c2ccsc2)o1` (stereo not given) reads 132 to 133 °C. With `CCCCC(Cc1cccnc1)(C(=O)O)S(=O)(=O)c1ccc(OC)cc1` (stereo not given), the melting point came to 65 °C. To `O=C(O)c1nc2cc(N3CCCCC3)c([N+](=O)[O-])cc2[nH]c1=O` belongs greater than 300 °C; to `COc1ccc(C(=O)c2cn(C)c3ccc([N+](=O)[O-])cc23)cc1`, 229 °C. For the molecule `CC(C)Cc1cc(OCc2ccccc2)c2c(c1)OC(C)(C)CC2C(=O)Oc1ccc([N+](=O)[O-])cc1` (stereo not given), the melting point lay in the range of 125 to 126 °C. The result for `CCc1nc(N)nc(N)c1CCCCc1cc(Cl)c(Cl)cc1Cl` reads 158 to 163 °C; that for `CC(C)(C)N[C@H](Cc1ccccc1)C(=O)O`, 79 to 80 °C. To `COc1ccc(Cn2nnnc2C2N3C(=O)C(NC(c4ccccc4)(c4ccccc4)c4ccccc4)C3SC2(C)C)cc1` (stereo not given) belongs 178 to 182 °C; to `CC(C)(C)c1cc(N=Nc2cc(Cl)ccc2Cl)c(O)c(C(C)(C)C)c1`, 121 to 126 °C; to `N#Cc1cccc(Oc2ccnc(Cl)c2)n1`, 114 °C. To `Cc1cc(C#N)cc(C)c1Oc1ncnc(Nc2ccc(C#N)cc2)n1` belongs 248 to 250 °C; to `CCOC(=O)COc1cc2c(c(Cl)c1Cl)C(=O)C(c1ccccc1)C2` (stereo not given), 114 to 115 °C; to `O=C1CCC(N2Cc3c(OCc4ccc(Cc5nc6ccccc6[nH]5)cc4)cccc3C2=O)C(=O)N1` (stereo not given), 203 to 205 °C. Molecule `O=C(O)CCCOc1ccc2cc(-c3ccc4ccc(Cl)cc4n3)oc2c1` displayed a melting point of 200 to 201 °C. `NC(=O)C1N=COC1CCl` (stereo not given): the melting point was in the range of 110 to 112 °C.

`CCOC(=O)c1cnc(CCOC)nc1O` registered a melting point of 115 to 118 °C.

In the case of `CCOc1ccc2c(c1)C(C)(c1cccc(O)c1)C(=O)N2S(=O)(=O)c1ccc(C(=O)NC(C)(C)C)cc1` (stereo not given), the melting point was 196 °C. The result for `O=C(NC12CC3CC(CC(C3)C1)C2)OCCc1cccs1` reads 67 to 69 °C; that for `O=C1c2ccccc2CN1CCN1CCC(c2noc3cc(F)ccc23)CC1`, 166 to 168 °C. Consider `Nc1ccc2oc(-c3cccc(O)c3)cc(=O)c2c1`, for which the melting point is 157 to 159 °C.

`COc1cc2c(c3c1OC(C)(C)C3)C(c1cccc(C#N)c1)=NCC2(C)C`: the melting point was 178 to 180 °C. `O=c1[nH]c2c(OC3CNC3)cccc2n1Cc1ccccc1`: the melting point lay in the range of 181 to 184 °C. The result for `CCOC(=O)C1=C(C(F)(F)F)NC2=C(C(=O)CCC2)C1c1nccn1C` (stereo not given) reads 197 to 198 °C; that for `O=c1[nH]nc2ccc(S)nn12`, greater than 300 °C.

Molecule `N#Cc1ccc(S(=O)(=O)Nc2ccc(Br)c3cc[nH]c23)cc1` gave a melting point of 214 to 216 °C. `O=C(C(=O)N1CCN(c2cccc3[nH]ccc23)CC1)c1c[nH]c2cc(Cl)ccc12` returned a melting point of 229 to 231 °C.
